The source made the active and inactive calls. The rule behind the calls is not given here.
Tested on: CCRIS mutagenicity, Ames/micronucleus/aberration tests
Assay: CCRIS mutagenicity studies
[1] = Test System: AMES SALMONELLA TYPHIMURIUM, Strain/Indicator: TA98, Metabolic Activation: NONE, Method: PREINCUBATION
[2] = Test System: AMES SALMONELLA TYPHIMURIUM, Strain/Indicator: TA100, Metabolic Activation: NONE, Method: PREINCUBATION
[3] = Test System: AMES SALMONELLA TYPHIMURIUM, Strain/Indicator: TA1535, Metabolic Activation: NONE, Method: PREINCUBATION

Measured: mutagenic call

CN(C)CCNC(=O)c1cccc2oc(-c3ccccc3)nc12
inactive: Test System: AMES SALMONELLA TYPHIMURIUM, Strain/Indicator: TA1537, Metabolic Activation: NONE, Method: STANDARD PLATE inactive; negative

COC=O
inactive: Test System: AMES SALMONELLA TYPHIMURIUM, Strain/Indicator: TA97, Metabolic Activation: HAMSTER, LIVER, S-9, AROCLOR 1254 (10 OR 30%), Method: PREINCUBATION inactive; negative | Test System: AMES SALMONELLA TYPHIMURIUM, Strain/Indicator: TA97, Metabolic Activation: NONE, Method: PREINCUBATION inactive; negative | Test System: AMES SALMONELLA TYPHIMURIUM, Strain/Indicator: TA97, Metabolic Activation: RAT, LIVER, S-9, AROCLOR 1254 (10 OR 30%), Method: PREINCUBATION inactive; negative | Test System: AMES SALMONELLA TYPHIMURIUM, Strain/Indicator: TA98, Metabolic Activation: HAMSTER, LIVER, S-9, AROCLOR 1254 (10 OR 30%), Method: PREINCUBATION inactive; negative | Test System: AMES SALMONELLA TYPHIMURIUM, Strain/Indicator: TA98, Metabolic Activation: NONE, Method: GAS EXPOSURE inactive; negative | [1] inactive; negative | Test System: AMES SALMONELLA TYPHIMURIUM, Strain/Indicator: TA98, Metabolic Activation: RAT, LIVER, S-9, AROCLOR 1254 (10 OR 30%), Method: PREINCUBATION inactive; negative | Test System: AMES SALMONELLA TYPHIMURIUM, Strain/Indicator: TA98, Metabolic Activation: RAT, LIVER, S-9, SODIUM PHENOBARBITAL AND 5,6-BENZOFLAVONE, Method: GAS EXPOSURE inactive; negative | Test System: AMES SALMONELLA TYPHIMURIUM, Strain/Indicator: TA100, Metabolic Activation: HAMSTER, LIVER, S-9, AROCLOR 1254 (10 OR 30%), Method: PREINCUBATION inactive; negative | Test System: AMES SALMONELLA TYPHIMURIUM, Strain/Indicator: TA100, Metabolic Activation: NONE, Method: GAS EXPOSURE inactive; negative | [2] inactive; negative | Test System: AMES SALMONELLA TYPHIMURIUM, Strain/Indicator: TA100, Metabolic Activation: RAT, LIVER, S-9, AROCLOR 1254 (10 OR 30%), Method: PREINCUBATION inactive; negative | Test System: AMES SALMONELLA TYPHIMURIUM, Strain/Indicator: TA100, Metabolic Activation: RAT, LIVER, S-9, SODIUM PHENOBARBITAL AND 5,6-BENZOFLAVONE, Method: GAS EXPOSURE inactive; negative | Test System: AMES SALMONELLA TYPHIMURIUM, Strain/Indicator: TA1535, Metabolic Activation: HAMSTER, LIVER, S-9, AROCLOR 1254 (10 OR 30%), Method: PREINCUBATION inactive; negative | Test System: AMES SALMONELLA TYPHIMURIUM, Strain/Indicator: TA1535, Metabolic Activation: NONE, Method: GAS EXPOSURE inactive; negative | [3] inactive; negative | Test System: AMES SALMONELLA TYPHIMURIUM, Strain/Indicator: TA1535, Metabolic Activation: RAT, LIVER, S-9, AROCLOR 1254 (10 OR 30%), Method: PREINCUBATION inactive; negative | Test System: AMES SALMONELLA TYPHIMURIUM, Strain/Indicator: TA1535, Metabolic Activation: RAT, LIVER, S-9, SODIUM PHENOBARBITAL AND 5,6-BENZOFLAVONE, Method: GAS EXPOSURE inactive; negative | Test System: AMES SALMONELLA TYPHIMURIUM, Strain/Indicator: TA1537, Metabolic Activation: NONE, Method: GAS EXPOSURE inactive; negative | Test System: AMES SALMONELLA TYPHIMURIUM, Strain/Indicator: TA1537, Metabolic Activation: RAT, LIVER, S-9, SODIUM PHENOBARBITAL AND 5,6-BENZOFLAVONE, Method: GAS EXPOSURE inactive; negative | Test System: E. COLI, Strain/Indicator: WP2UVRA, Metabolic Activation: NONE, Method: GAS EXPOSURE inactive; negative | Test System: E. COLI, Strain/Indicator: WP2UVRA, Metabolic Activation: RAT, LIVER, S-9, PHENOBARBITAL AND BETA--NAPHTHOFLAVONE, Method: GAS EXPOSURE inactive; negative

CC(=O)O[C@]1(C)C(=O)OC/C2=C/CN(C)CC[C@@H](OC(=O)C3(C[C@H]1C)O[C@@H]3C)C2=O (some centres not stated)
active: Test System: UDS RAT HEPATOCYTES, Strain/Indicator: THY INCORP, Metabolic Activation: NONE, Method: AUTORADIOGRAPHY active; positive

O=C1C=C(O)c2ccccc2C1=O
active: Test System: AMES SALMONELLA TYPHIMURIUM, Strain/Indicator: TA1537, Metabolic Activation: RAT, LIVER, S-9, AROCLOR 1254 (10%), Method: PREINCUBATION active; positive
inactive: Test System: AMES SALMONELLA TYPHIMURIUM, Strain/Indicator: TA98, Metabolic Activation: HAMSTER, LIVER, S-9, AROCLOR 1254 (10%), Method: PREINCUBATION inactive; negative | [1] inactive; negative | Test System: AMES SALMONELLA TYPHIMURIUM, Strain/Indicator: TA98, Metabolic Activation: RAT, LIVER, S-9, AROCLOR 1254 (10%), Method: PREINCUBATION inactive; negative | Test System: AMES SALMONELLA TYPHIMURIUM, Strain/Indicator: TA98, Metabolic Activation: RAT, LIVER, S-9, PHENOBARBITAL AND 5,6-BENZOFLAVONE, Method: PREINCUBATION inactive; negative | Test System: AMES SALMONELLA TYPHIMURIUM, Strain/Indicator: TA100, Metabolic Activation: HAMSTER, LIVER, S-9, AROCLOR 1254 (10%), Method: PREINCUBATION inactive; negative | [2] inactive; negative | Test System: AMES SALMONELLA TYPHIMURIUM, Strain/Indicator: TA100, Metabolic Activation: RAT, LIVER, S-9, AROCLOR 1254 (10%), Method: PREINCUBATION inactive; negative | Test System: AMES SALMONELLA TYPHIMURIUM, Strain/Indicator: TA100, Metabolic Activation: RAT, LIVER, S-9, PHENOBARBITAL AND 5,6-BENZOFLAVONE, Method: PREINCUBATION inactive; negative | Test System: AMES SALMONELLA TYPHIMURIUM, Strain/Indicator: TA102, Metabolic Activation: NONE, Method: PREINCUBATION inactive; negative | Test System: AMES SALMONELLA TYPHIMURIUM, Strain/Indicator: TA102, Metabolic Activation: RAT, LIVER, S-9, PHENOBARBITAL AND 5,6-BENZOFLAVONE, Method: PREINCUBATION inactive; negative | Test System: AMES SALMONELLA TYPHIMURIUM, Strain/Indicator: TA104, Metabolic Activation: NONE, Method: PREINCUBATION inactive; negative | Test System: AMES SALMONELLA TYPHIMURIUM, Strain/Indicator: TA104, Metabolic Activation: RAT, LIVER, S-9, PHENOBARBITAL AND 5,6-BENZOFLAVONE, Method: PREINCUBATION inactive; negative | Test System: AMES SALMONELLA TYPHIMURIUM, Strain/Indicator: TA1535, Metabolic Activation: HAMSTER, LIVER, S-9, AROCLOR 1254 (10%), Method: PREINCUBATION inactive; negative | [3] inactive; negative | Test System: AMES SALMONELLA TYPHIMURIUM, Strain/Indicator: TA1535, Metabolic Activation: RAT, LIVER, S-9, AROCLOR 1254 (10%), Method: PREINCUBATION inactive; negative | Test System: AMES SALMONELLA TYPHIMURIUM, Strain/Indicator: TA1535, Metabolic Activation: RAT, LIVER, S-9, PHENOBARBITAL AND 5,6-BENZOFLAVONE, Method: PREINCUBATION inactive; negative | Test System: AMES SALMONELLA TYPHIMURIUM, Strain/Indicator: TA1537, Metabolic Activation: HAMSTER, LIVER, S-9, AROCLOR 1254 (10%), Method: PREINCUBATION inactive; negative | Test System: AMES SALMONELLA TYPHIMURIUM, Strain/Indicator: TA1537, Metabolic Activation: NONE, Method: PREINCUBATION inactive; negative | Test System: AMES SALMONELLA TYPHIMURIUM, Strain/Indicator: TA1537, Metabolic Activation: RAT, LIVER, S-9, PHENOBARBITAL AND 5,6-BENZOFLAVONE, Method: PREINCUBATION inactive; negative | Test System: AMES SALMONELLA TYPHIMURIUM, Strain/Indicator: TA1538, Metabolic Activation: NONE, Method: PREINCUBATION inactive; negative | Test System: AMES SALMONELLA TYPHIMURIUM, Strain/Indicator: TA1538, Metabolic Activation: RAT, LIVER, S-9, PHENOBARBITAL AND 5,6-BENZOFLAVONE, Method: PREINCUBATION inactive; negative | Test System: AMES SALMONELLA TYPHIMURIUM, Strain/Indicator: TA2637, Metabolic Activation: NONE, Method: PREINCUBATION inactive; negative | Test System: AMES SALMONELLA TYPHIMURIUM, Strain/Indicator: TA2637, Metabolic Activation: RAT, LIVER, S-9, PHENOBARBITAL AND 5,6-BENZOFLAVONE, Method: PREINCUBATION inactive; negative

c1ccc(Cc2ccc(CC3CO3)cc2)cc1 (configuration not stated)
inactive: [2] inactive; negative | [3] inactive; negative
active: Test System: AMES SALMONELLA TYPHIMURIUM, Strain/Indicator: TA100, Metabolic Activation: NONE, Method: STANDARD PLATE active; positive | Test System: AMES SALMONELLA TYPHIMURIUM, Strain/Indicator: TA1535, Metabolic Activation: NONE, Method: STANDARD PLATE active; positive

— PubChem BioAssay AID1259407 (Chemical Carcinogenesis Research Information System (CCRIS), 2018)
